Active and inactive are the calls of the source. The rule behind the calls is not given here.
Assays:
[1] = Cytotoxicity against human 518A2 cells by SRB assay; format: functional, cell-based
[2] = Cytotoxicity against human SW1736 cells by SRB assay; format: functional, cell-based; settings: SW-1736
[3] = Cytotoxicity against human A253 cells by SRB assay; format: functional, cell-based
A549 = assay: Cytotoxicity against human A549 cells by SRB assay; format: functional, cell-based
8505C = assay: Cytotoxicity against human 8505C cells by SRB assay; format: functional, cell-based
[4] = Cytotoxicity against mouse NIH/3T3 cells by SRB assay; format: cell-based; settings: NIH3T3
[5] = Cytotoxicity against human Lipo cells by SRB assay; format: functional, cell-based
A2780 = assay: Cytotoxicity against human A2780 cells by SRB assay; format: functional, cell-based
[6] = Cytotoxicity against human DLD1 cells by SRB assay; format: functional, cell-based; settings: DLD-1
MCF7 = assay: Cytotoxicity against human MCF7 cells by SRB assay; format: functional, cell-based
518A2 [7] = assay: Induction of apoptosis in human 518A2 cells assessed as normal cells at 35 uM after 48 or 72 hrs by annexin V-FITC/propidium iodide staining-based flow cytometry; format: functional
518A2 [8] = assay: Induction of apoptosis in human 518A2 cells assessed as secondary necrotic cells at 35 uM after 24 hrs by fluorescence microscopy; format: functional, cell-based
518A2 [9] = assay: Induction of apoptosis in human 518A2 cells assessed as secondary necrotic cells at 35 uM after 48 or 72 hrs by annexin V-FITC/propidium iodide staining-based flow cytometry; format: functional
518A2 [10] = assay: Induction of apoptosis in human 518A2 cells assessed as apoptotic ells at 35 uM after 48 or 72 hrs by annexin V-FITC/propidium iodide staining-based flow cytometry; format: functional
518A2 [11] = assay: Induction of apoptosis in human 518A2 cells assessed as necrotic cells at 35 uM after 48 or 72 hrs by annexin V-FITC/propidium iodide staining-based flow cytometry; format: functional

SMILES | IC50 [1] [µM] | IC50 [2] [µM] | IC50 [3] [µM] | IC50 (A549) [µM] | IC50 (8505C) [µM] | IC50 [4] [µM] | IC50 [5] [µM] | IC50 (A2780) [µM] | IC50 [6] [µM] | IC50 (MCF7) [µM] | Activity (518A2 [7]) [%] | Activity (518A2 [8]) | Activity (518A2 [9]) [%] | Activity (518A2 [10]) [%] | Activity (518A2 [11]) [%]
CCOC(=O)C(C[N+](=O)[O-])c1ccc(C)cc1 (stereo not given) | > 30 | > 30 | > 30 | > 30 | > 30 | > 30 | > 30 | > 30 | > 30 | > 30 |  |  |  |  | 
CN(C)C(=O)C(C[N+](=O)[O-])c1ccc(Cl)cc1 (stereo not given) | > 30 | > 30 | > 30 | > 30 | > 30 | > 30 | > 30 | > 30 | > 30 | > 30 |  |  |  |  | 
CCOC(=O)C(C[N+](=O)[O-])c1ccc(F)cc1 (stereo not given) | > 30 | > 30 | > 30 | > 30 | > 30 | > 30 | > 30 | > 30 | > 30 | > 30 |  |  |  |  | 
CCOC(=O)C(C[N+](=O)[O-])c1ccc(Cl)cc1 (stereo not given) | 17.3 | > 30 | > 30 | 14.9 | > 30 | 7.7 | 19.2 | 1.6 | 10.9 | 22.8 | 22.72 | Active | 12.222 | 3.224 | 2.883
CCOC(=O)C(C[N+](=O)[O-])c1cccc(OC(F)(F)F)c1 (stereo not given) | 14.5 | 16.6 | 11.8 | 19.9 | 22.1 | > 30 | > 30 | 2.2 | > 30 | > 30 |  |  |  |  | 
CCOC(=O)C(C[N+](=O)[O-])c1ccccc1Cl (stereo not given) | > 30 | > 30 | > 30 | > 30 | > 30 | > 30 | > 30 | 9.9 | > 30 | > 30 |  |  |  |  | 
CCOC(=O)C(CN)c1ccc(Cl)cc1 (stereo not given) | > 30 | > 30 | > 30 | > 30 | > 30 | 25.7 | > 30 | 22.3 | > 30 | > 30 |  |  |  |  | 
CCOC(=O)C(C[N+](=O)[O-])c1ccc(C(F)(F)F)cc1 (stereo not given) | 15.2 | 6.3 | 9.8 | 9.9 | 13.8 | 9.7 | 15.2 | 6.6 | 11 | 6.7 |  |  |  |  | 
CCOC(=O)C(C[N+](=O)[O-])c1cccc(C(F)(F)F)c1 (stereo not given) | 8.6 | 4.7 | 7.2 | 13.6 | 20.7 | 10.2 | 10.9 | 6.3 | 8.2 | 7.6 |  |  |  |  | 
COC(=O)C(C[N+](=O)[O-])c1ccc(Cl)cc1 (stereo not given) | 5.8 | 5.8 | 5.4 | 10.5 | 11.6 | 2.1 | 8.7 | 2.5 | 5.2 | 3.4 |  |  |  |  | 
O=C(Cc1ccccc1)C(C[N+](=O)[O-])c1ccc(Cl)cc1 (stereo not given) | 23.9 | 23.9 | 21.4 | > 30 | > 30 | 9.2 | 28.9 | 12.1 | 22.5 | 18.2 |  |  |  |  | 
C=C(C#N)c1ccc(Cl)cc1 | > 30 | > 30 | > 30 | > 30 | > 30 | 23.5 | > 30 | 15.4 | > 30 | 14.2 |  |  |  |  | 
CCOC(=O)C(C[N+](=O)[O-])c1ccc(OC)cc1 (stereo not given) | > 30 | > 30 | > 30 | > 30 | > 30 | > 30 | > 30 | > 30 | > 30 | > 30 |  |  |  |  | 
CCOC(=O)C(C[N+](=O)[O-])c1cccc(Cl)c1 (stereo not given) | 7.3 | 8.3 | 10.6 | 3.5 | 14.9 | 21.1 | 19.5 | 14.4 | 14.5 | 17.9 |  |  |  |  | 
CCOC(=O)C(C)(C[N+](=O)[O-])c1ccc(Cl)cc1 (stereo not given) | > 30 | > 30 | > 30 | > 30 | > 30 | > 30 | > 30 | > 30 | > 30 | > 30 |  |  |  |  | 
NC(=O)C(C[N+](=O)[O-])c1ccc(Cl)cc1 (stereo not given) | > 30 | > 30 | > 30 | > 30 | > 30 | > 30 | > 30 | > 30 | > 30 | > 30 |  |  |  |  | 
CCOC(=O)C(C[N+](=O)[O-])c1ccccc1 (stereo not given) | > 30 | > 30 | > 30 | > 30 | > 30 | > 30 | > 30 | > 30 | > 30 | > 30 |  |  |  |  | 
